The values that follow come from patent US20110091375A1, “USE OF THE COMBINATION COMPRISING TEMOZOLOMIDE AND TNF-ALPHA FOR TREATING GLIOBLASTOMA” (THE UNIVERSITY OF CHICAGO, priority 2004, published 2011).

In experiment [1] the test system is NF-κB in Panel pancreatic cancer cells. Kind of experiment: NF-κB-responsive luciferase reporter assay, Panel. Type of experiment: cell-based, human. In general terms: Reporter assays use an easily measured gene product as a stand-in for the process of interest.
Experiment [2] deals with NF-κB in MIAPaCa-2 pancreatic cancer cells. Description: NF-κB-responsive luciferase reporter assay, MIAPaCa-2. Type of experiment: cell-based, human.
In experiment [3] the test system is U87 intracranial xenografts. Description: Histological analysis and TUNEL of intracranial tumor sections. Type of experiment: in vivo, nude mice. The settings on record: day 7. On the procedure: (§1) In a second experiment, mice were randomized into eight groups (untreated control (UTC); intratumoral (IT) Ad.Egr-TNF alone; intraperitoneal (IP) TMZ alone; IR alone; Ad.Egr-TNF and TMZ; Ad.Egr-TNF and IR; TMZ and IR; and Ad.Egr-TNF, TMZ and IR). A single dose of 5×10^5 U87 cells was inoculated into the right caudate nucleus of each mouse on day 0 using a screw guide technique (Lal, S. et al. (2000) J Neurosurg 92:326-333). On day 5, 5×10^8 pu Ad.Egr-TNF in 5 μL volume was injected once via the screw guide directly into the tumor. Beginning two hours after vector injection, 5 Gy IR was delivered to the tumor area and repeated every 2-3 days to a total of 30 Gy. TMZ (5 mg/kg) was given IP 3 h after vector inoculation and like doses were given daily for the next two days for a total dose of 15 mg/kg. Control animals received SFM IT and IP and were also placed in Lucite chambers. Daily assessment of animal appearance was made. […]
Paraffin embedded brains were sectioned (8 μm), stained with hematoxylin and eosin and analyzed in a blinded fashion.
Terminal deoxynucleotidyl transferase-mediated dUTP-biotin nick end-labeling (TUNEL) assay was performed in accordance with the manufacturer's instructions (Chemicon) and analyzed blindly at 400× magnification by use of a computer-aided light microscope with reconstruction software (Neurolucida, Microbrightfield, Vt.). […]

Experiment [4] has as its system IκBα. Kind of experiment: TNFα-induced IκBα degradation and phosphorylation (Western blot / kinase assay). It is filed as cell-based, human. How it is done:
Cells were then washed with 10 mL ice-cold PBS, scraped from the dish, and pelleted by centrifugation at 1000 rpm for 5 m at 4° C. Cell pellets were resuspended in 400 μl of ice-cold buffer A (10 mM HEPES, pH 7.9; 10 mM KCl; 0.1 mM EDTA; 1 mM DTT; 0.5 mM phenylmethysulfonylfluoride [PMSF]; 1 μg/mL leupeptin; 5 μg/mL aprotinin) and allowed to swell on ice for 15 m. Following the addition of 25 μl of 10% NP-40, the suspension was vortexed for 10 s and centrifuged at 14,500 rpm for 1 m at 4° C. Nuclei were resuspended in 50 μl of ice-cold buffer B (20 mM HEPES, pH 7.9; […]; 1 mM EDTA; 1 mM DTT; 1 mM PMSF; 25% glycerol; 1 μg/mL leupeptin; 5 μg/mL aprotinin) and incubated on ice for 15 m. The nuclear suspension was then centrifuged at 14,500 rpm for 5 m at 4° C. and the supernatant containing the nuclear proteins was transferred to a clean tube. Protein concentrations for each sample were determined by the Bradford method (Bio-Rad, Richmond, Calif., USA) and were adjusted to 2 μg/μl by the addition of buffer B.
(§2) 20 μg of whole U87 cell (or nuclear) lysate was subjected to sodium dodecyl sulfate (SDS)-polyacrylamide gel electrophoresis (PAGE). Following electro-transfer, Immobilon-P membranes (Millipore Corp. Burlington, Mass., USA.) were probed with primary polyclonal antibody against IκBα, phospho-Ser32-IκBα, SAPK/JNK, phospho-Thr183/Tyr185-SAPK/JNK, p65, phospho-Ser536-p65 (Cell Signaling Technology Inc. Beverly, […]., USA) diluted 1:1000 overnight at 4° C. Anti-rabbit IgG HRP-linked secondary antibody (Cell Signaling Technology) was diluted 1:1000 in blocking buffer and applied for 1 h at room temperature. Immunoreactive bands were detected by SuperSignal enhanced chemiluminescence (ECL) (Pierce, Rockford, Ill., USA) and exposed to Kodak X-Omat film.
IκK was immunoprecipitated from treated U87 cell extracts with anti-IKKβ antibody, (Santa Cruz Biotechnology, Santa Cruz, Calif., USA). […] Kinase activity was quantified using a Phosphoimager and Equal protein loading determined by immunoblotting with anti-IκKβ antibody (Upstate USA, Charlottesville, Va., USA). […]
(In general: Immunoblotting shows a protein as a band on a membrane.)

For experiment [5], the system named is p65. Kind of experiment: TNFα-induced p65 phosphorylation (Western blot). Type of experiment: cell-based, human. How it is done: as §2
Experiment [6] concerns JNK. Description: JNK phosphorylation (activation), Western blot. It is filed as cell-based, human. The settings on record: glioma cells. How it is done:
as §2

In experiment [7] the test system is U87 intracranial xenografts. Description: Intracranial glioma xenograft survival. It is filed as in vivo, nude mice. The note with it: first intracranial experiment; TMZ 20 mg/kg total IP, single IC Ad.Egr-TNF. On the procedure: Intracranial Studies: In two separate experiments, 5×10^5 U87 cells were inoculated into the right caudate nucleus on day 0 using a screw guide technique (Lal, S. et al. (2000) J Neurosurg 92:326-333). In the first experiment, mice were randomized into four groups as described above in Example 4. On day 5, a single intracranial (IC) injection of 5×10^8 pu Ad.Egr-TNF in 5 μl volume was made directly into the tumor using the screw guide technique. TMZ (5 mg/kg) was given IP 3 h after IC vector inoculation. Three additional IP TMZ injections were administered on consecutive days for a total dose of 20 mg/kg. Control animals received SFM IT and IP.
as §1, with “Gy.” for “Gy. TMZ (5 mg/kg) was given IP 3 h after vector inoculation and like doses were given daily for the next two days for a total dose of 15 mg/kg. Control animals received SFM IT and IP and were also placed in Lucite chambers. Daily assessment of animal appearance was made.”

Turning to `Cn1nnc2c(C(N)=O)ncn2c1=O` [TMZ, temozolomide], the “TNFα-induced NF-κB transcriptional activity” value in experiment [1] and in experiment [2] was “activated” each time. This compound also yielded a TUNEL positive cells in experiment [3] of 14±12 TUNEL^+ cells/10^−6 mm^2. Moreover, the “reduction of TNFα-induced phosphorylation of IκBα” value in experiment [4] (TMZ pretreatment, at 5 m) is recorded as 50%. The “degradation of IκBα” value in experiment [4] (at 15 m, TNFα with or without TMZ pretreatment) was “reduced TNFα-induced degradation”. For the same compound, the “TNFα-induced p65 phosphorylation” value in experiment [5] is listed as “inhibits”. Besides, in experiment [6], the “JNK phosphorylation (activation)” value is “progressive and delayed activation”. Besides, the median survival in experiment [7] is 28 days.
